Like-named read-outs stand apart in the source and are kept apart here.

For one experiment, the system named is NSCLC A549 cell line. The experiment in a line: MTT assay against human tumor NSCLC A549 cell line. The experiment is classed as cell-based.
A further experiment has as its system colon LOVO cell line. The experiment in a line: MTT assay against colon LOVO cell line. The experiment is classed as cell-based, human.

Consider `COc1cc2c(Oc3ccc4[nH]c(C)cc4c3F)ccnc2cc1OCCN1CC2(CC2)C2(C1)OCCO2` [Example 1, 4-(4-Fluoro-2-methyl-1H-indol-5-yloxy)-6-methoxy-7-[2-(5,8-Dioxa-10-azadispiro[2.0.4.3]-undecane)ethoxy]quinoline], for which the IC50 in the experiment on NSCLC A549 cell line was determined as 90 nM; in the experiment on colon LOVO cell line, 200 nM.

Regarding `COc1cc2c(Oc3ccc4[nH]c(C)cc4c3F)ccnc2cc1OCCN1CC(=O)C2(CC2)C1` [Example 2, 5-(2-(4-(4-Fluoro-2-methyl-1H-indol-5-yloxy)-6-methoxyquinolin-7-yloxy)ethyl)-5-azaspiro[2.4]-heptan-7-one], the IC50 in the experiment on NSCLC A549 cell line (Homo sapiens) was 100 nM; in the experiment with colon LOVO cell line (Homo sapiens) it was 300 nM.
